According to patent publication US20220380310A1, “P2X7R ANTAGONISTS” (priority 2019, published 2022):
Counter-ions that a name gives are not always drawn.

target: T1, Human P2X2 receptor (P2X2R) (Homo sapiens, UniProt Q9UBL9); assay: Yo-Pro-1 uptake assay, P2X2R transfected HEK-293 cells; format: cell-based; details: 5 μM ATP stimulus
T1 construct: expressed in transfected cells; host or cells: HEK-293
T1 sequence (Q9UBL9 1-471): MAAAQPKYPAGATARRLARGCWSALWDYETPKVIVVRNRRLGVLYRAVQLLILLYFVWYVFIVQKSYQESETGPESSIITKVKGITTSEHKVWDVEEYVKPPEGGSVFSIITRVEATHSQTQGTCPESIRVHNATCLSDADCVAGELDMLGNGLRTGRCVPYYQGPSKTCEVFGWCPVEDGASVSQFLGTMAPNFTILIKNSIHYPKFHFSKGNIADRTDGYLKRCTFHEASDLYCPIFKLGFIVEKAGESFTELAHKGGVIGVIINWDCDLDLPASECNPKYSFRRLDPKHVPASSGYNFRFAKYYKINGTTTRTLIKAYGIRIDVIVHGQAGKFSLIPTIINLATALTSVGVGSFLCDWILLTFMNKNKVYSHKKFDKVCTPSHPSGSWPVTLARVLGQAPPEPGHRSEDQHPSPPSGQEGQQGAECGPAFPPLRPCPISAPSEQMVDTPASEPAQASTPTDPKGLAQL
Description: Yo-Pro-1 Iodide (Cat. No Y3603 from Fisher Scientific) is a fluorescent DNA-binding dye with a MW of 629 Da. This method is based upon the Yo-Pro-1 entrance to cells through the dilated or “large pore form” of P2X7R and its binding to intracellular DNA whereby it increases its fluorescence intensity (J. Pharmacol. Exp. Ther. 308, 1053-1061). The dye has an absorption spectrum compatible with excitation at 488 nm by argon laser sources and its emission wavelength is in the range of 515-575 nm. This Yo-Pro-1 uptake was measured in HEK-293 cells transiently transfected with P2X7R (J. Biol. Chem. 290, 7930-7942). In Brief, HEK-293 cells were seeded in growth medium at approximately 20,000 cells/well in a 96-well plate on day 1. Transfection was performed on day 2 using Lipofectamine 2000 with the P2X7R DNA plasmid at the concentration of 1.7 μg/ml. The transfection solution was replaced with the growth medium 4 hours later. Fluorescent assays were conducted on day 4. On day 4, the medium was removed, the cells were washed with phosphate buffered saline (PBS) (Cat. No. MT21040CV from Fisher Scientific). Then, 25 μl of PBS were first loaded to each well followed by 25 μl of various test compounds. The third 25 μl of solution contained a mixture of Yo-Pro-1 and stimulus bzATP (2′(3′)-O-(4-Benzoylbenzoyl)adenosine-5′-triphosphate tri(triethylammonium) salt). The final concentration of Yo-Pro-1 was 2.5 μM and of bzATP 30 μM. Fluorescence increases were measured every 30 minutes in a microplate device with excitation at 475 nm and emission wavelength in the range of 500-550 nm. PPADS (Pyridoxalphosphate-6-azophenyl-2′,4′-disulfonic acid tetrasodium) was used as the positive control. The wells with no test compounds added nor bzATP and only containing PBS and Yo-Pro-1 were served as the negative control (N Contl). The positive control (P Contl) wells were the same as N Contl but contained the stimulus, bzATP in this case.
Data used for analysis were from microplate readings 1 hour after bzATP stimulation. The result of each well was first normalized by its corresponding base microplate reading. The base microplate reading was the first reading right after all components were added. Then, the negative control signal was subtracted from. In the negative control, the test compound and the stimulus were replaced by PBS. An average of six highest values of the plate (AVG) were considered as 100% and the value of each well was divided by AVG and presented as the relative values in percentages.
Human P2X2 receptor (P2X2R) construct (J. Biol. Chem. 290, 7930-7942) was transiently transfected to HEK-293 cells and the Yo-Pro-1 assay was performed as described above. When 5 μM ATP was used as the stimulus, the elevation of receptor mediated activity can be seen in 10 minutes.

Structure (SMILES) | Percentage of activity remains in the presence of the compound at 5 μM, P2X2R (Yo-Pro-1 Assay) [%]
Cc1nc(N=Nc2ccc(S(=O)(=O)[O-])cc2S(=O)(=O)[O-])c(COP(=O)([O-])[O-])c(C=O)c1O.[Na+].[Na+].[Na+].[Na+] [PPADS, Pyridoxalphosphate-6-azophenyl-2′,4′-disulfonic acid tetrasodium, reference compound] | 29.6

same assay, conditions: HEK293, compound at 5 μM, 5 μM ATP stimulus, read-out: Percentage of activity remains in the presence of the compound at 5 μM, P2X2R (Yo-Pro-1 Assay)

remaining activity at 5 µM [%] | Structure (SMILES)
59.2 | O=C(CCc1ccccc1)NC1CCCN(S(=O)(=O)c2ccc(N3CCC(C(F)(F)F)CC3)cc2)C1 (centres unmarked) [#42]
59.7 | O=C(CCc1ccccc1)NC1CCCN(c2ccc(S(=O)(=O)Nc3ccccc3)cc2)C1 (centres unmarked) [#50]
70.6 | O=C(CCc1ccccc1)N1CCN(S(=O)(=O)c2ccc(N3CCCC3)cc2)CC1 [#35]
83.3 | O=C(CCc1ccccc1)NC1CCCN(S(=O)(=O)c2ccc(N3CCCCC3)c(Cl)c2)C1 (centres unmarked) [#45]
55.4 | CCCCNc1ccc(S(=O)(=O)N2CCC(C(=O)O)CC2)cc1 [#27]
64 | CC(C)(C)OC(=O)N1CCN(c2ccc(S(=O)(=O)N3CCN(C(=O)CCc4ccccc4)CC3)cc2)CC1 [#31]
81.7 | O=C(CCc1ccccc1)NC1CCCN(c2ccc(S(=O)(=O)N3CCCCC3)cc2)C1 (centres unmarked) [#54]
72.4 | O=C(CCc1ccccc1)N1CCN(S(=O)(=O)c2ccc(N3CCCCC3)cc2)CC1 [#34]
60.9 | O=C(CCc1ccccc1)N1CCN(S(=O)(=O)c2ccc(NC3CCCCC3)cc2)CC1 [#33]
61.8 | CC(C)(C)OC(=O)N1CCN(c2ccc(S(=O)(=O)N3CCCC(C(=O)NCCc4ccccc4)C3)cc2)CC1 (centres unmarked) [#36]
57.6 | O=C(CCc1ccccc1)NC1CCCN(S(=O)(=O)c2ccc(N3CCC(Oc4ccccc4)CC3)cc2)C1 (centres unmarked) [#38]
66.3 | CC(C)OC1CCN(c2ccc(S(=O)(=O)N3CCCC(NC(=O)CCc4ccccc4)C3)cc2)CC1 (centres unmarked) [#39]
58.1 | CCOc1ccc(S(=O)(=O)N2CCCC(NC(=O)CCc3ccccc3)C2)cc1 (centres unmarked) [#37]
70.9 | NS(=O)(=O)c1ccc(N2CCCC(NC(=O)CCc3ccccc3)C2)cc1 (centres unmarked) [#53]
71.1 | O=C(CCc1ccccc1)NC1CCCN(S(=O)(=O)c2ccc(F)c(Cl)c2)C1 (centres unmarked) [#43]
55.9 | CC(C)N(C(C)C)S(=O)(=O)c1ccc(N2CCCC(NC(=O)CCc3ccccc3)C2)cc1 (centres unmarked) [#49]
39.1 | O=C(CCc1ccccc1)NC1CCCN(S(=O)(=O)c2ccc(N3CCC(F)(F)CC3)cc2)C1 (centres unmarked) [#46]
74.9 | O=C(CCc1ccccc1)N1CCN(S(=O)(=O)c2ccc(F)cc2)CC1 [#30]
69.1 | CC1CCN(c2ccc(S(=O)(=O)N3CCCC(NC(=O)CCc4ccccc4)C3)cc2)CC1 (centres unmarked) [#40]
61.4 | CC1CCCN(c2ccc(S(=O)(=O)N3CCCC(NC(=O)CCc4ccccc4)C3)cc2)C1 (centres unmarked) [#44]
61.4 | CC(C)(C)OC(=O)N1CCC(C2CCN(c3ccc(S(=O)(=O)N4CCCC(NC(=O)CCc5ccccc5)C4)cc3)CC2)CC1 (centres unmarked) [#41]
89.4 | O=C(CCc1ccccc1)N1CCNCC1 [#29, hydrochloride]
79.3 | O=C(NCCc1ccccc1)C1CCCN(S(=O)(=O)c2ccc(N3CCCC3)cc2)C1 (centres unmarked) [#25]
79.9 | O=C(CCc1ccccc1)N1CCN(S(=O)(=O)c2ccc(N3CCOCC3)cc2)CC1 [#32]
85.4 | O=C(CCc1ccccc1)NC1CCCN(c2ccc(S(=O)(=O)N3CCCC3)cc2)C1 (centres unmarked) [#55]
69.7 | CC1CCCCN1c1ccc(S(=O)(=O)N2CCCC(NC(=O)CCc3ccccc3)C2)cc1 (centres unmarked) [#47]
46.6 | O=C(CCc1ccccc1)NC1CCCN(c2ccc(S(=O)(=O)NC3CCCCC3)cc2)C1 (centres unmarked) [#51]
77.3 | NC(=O)c1cc(Br)cc(N2CCOCC2)c1 [#28]
45.8 | O=C(CCc1ccccc1)NC1CCCN(c2ccc(S(=O)(=O)NCc3ccco3)cc2)C1 (centres unmarked) [#52]

Continued, molecule first:

Structure (SMILES) | remaining activity at 5 µM [%]
O=S(=O)(c1ccccc1)C1CN(S(=O)(=O)c2ccc(N3CCOCC3)cc2)C1 [#11] | 44
CC(C)(C)OC(=O)N1CCN(c2ccc(S(=O)(=O)N3CCC(C(=O)NCCc4ccccc4)CC3)cc2)CC1 [#22] | 72
CC(C)S(=O)(=O)c1ccc(N2CCCC(NC(=O)CCc3ccccc3)C2)cc1 (centres unmarked) [#7] | 77.6
O=C(NCCc1ccccc1)C1CCCN(S(=O)(=O)c2ccc(N3CCOCC3)cc2)C1 (centres unmarked) [#24] | 70.9
O=C(CCc1ccccc1)NC1CCCN(S(=O)(=O)c2ccc(N3CCCC3)cc2)C1 (centres unmarked) [#13] | 48.9
O=C1CCC(N2Cc3c(NC(=O)CCc4ccccc4)cccc3C2=O)C(=O)N1 (centres unmarked) [#16] | 83.8
COc1ccc(S(=O)(=O)N2CCCC(NC(=O)CCc3ccccc3)C2)cc1 (centres unmarked) [#2] | 54.6
O=C(NCCc1ccccc1)C1CCN(S(=O)(=O)c2ccc(N3CCCCC3)cc2)CC1 [#20] | 61.5
O=C(CCc1ccccc1)NC1CCCN(S(=O)(=O)c2ccc(N3CCOCC3)cc2)C1 (centres unmarked) [#12] | 41.8
O=C(CCc1ccccc1)NC1CCCN(S(=O)(=O)c2ccc(N3CCCCC3)cc2)C1 (centres unmarked) [#5] | 55.5
O=C(CCc1ccccc1)NC1CCCN(S(=O)(=O)c2ccc(-n3cc(Br)cn3)cc2)C1 (centres unmarked) [#9] | 76.9
COCCOc1ccc(S(=O)(=O)N2CCCC(NC(=O)CCc3ccccc3)C2)cc1 (centres unmarked) [#17] | 91.6
CN(C)c1ccc(S(=O)(=O)N2CCCC(NC(=O)CCc3ccccc3)C2)cc1 (centres unmarked) [#14] | 54.3
O=S(=O)(c1ccccc1)C1CN(S(=O)(=O)c2ccc(N3CCCCC3)cc2)C1 [#10] | 38.2
CS(=O)(=O)c1ccc(N2CCCC(NC(=O)CCc3ccccc3)C2)cc1 (centres unmarked) [#1] | 44
O=C(CCc1ccccc1)NC1CCCN(S(=O)(=O)Cc2ccc(Br)cc2)C1 (centres unmarked) [#8] | 63.8
O=C(NCCc1ccccc1)C1CCN(S(=O)(=O)c2ccc(N3CCCC3)cc2)CC1 [#21] | 50.8
O=C(CCc1ccccc1)NC1CCCN(S(=O)(=O)c2ccc(F)cc2)C1 (centres unmarked) [#3] | 57
CCCCNc1ccc(S(=O)(=O)N2CCCC(NC(=O)CCc3ccccc3)C2)cc1 (centres unmarked) [#15] | 85
O=C(NCCc1ccccc1)C1CCN(S(=O)(=O)c2ccc(N3CCOCC3)cc2)CC1 [#23] | 77.1
O=C(CCc1ccccc1)NC1CCCN(S(=O)(=O)c2ccc(OCc3ccccc3)cc2)C1 (centres unmarked) [#4] | 64.9
CN1CCN(c2ccc(S(=O)(=O)N3CCCC(NC(=O)CCc4ccccc4)C3)cc2)CC1 (centres unmarked) [#18] | 52.7
CC(C)COc1ccc(S(=O)(=O)N2CCCC(NC(=O)CCc3ccccc3)C2)cc1 (centres unmarked) [#6] | 54.3
